In patent publication US8003796B2, “Pyridone GPR119 G protein-coupled receptor agonists” (Bristol-Myers Squibb Company, priority 2007, dated 2011):
Structures can show the parent of a compound that is named as a salt.

Tests used:
male C57BL/6J mice = assay: Mouse oral glucose tolerance test; type: in vivo; conditions: oGTT in fasted mice; oral administration at -30 min, glucose 2 g/kg at time 0; plasma glucose AUC vs vehicle; dose not given
Description: Mouse Oral Glucose Tolerance Test
24 male C57BL/6J mice (8-10 weeks old, average weight 28 g) were randomized into 4 groups (1 mouse/cage) of 6 mice per group based on fed plasma glucose and body weight. Prior to initiating the study, mice were fasted overnight and the next morning they were weighed and placed in the experimental lab. After 30 min in the environment, the mice were bled via tail tip at −30 min and immediately given their first oral administration of vehicle (0.5% Methocel, 0.1% Tween 80 in water) or compound solutions (5 ml/kg). At time 0 the mice were bled and given 50% glucose (2 g/kg) to initiate the oral glucose tolerance test (oGTT). The mice were bled 30, 60 and 120 min after the glucose load. Blood samples were drawn into potassium EDTA, placed on ice during the study and subsequently centrifuged for 10 min at 3000 rpm at 4° C. Plasma samples were diluted 11-fold for glucose analysis in the Cobas Mira System (Roche Diagnostics). Area under the curve was calculated from the plasma glucose time course data using the trapezoid rule with fasting plasma glucose as the baseline (GraphPad Prism Software). The statistical significance of the changes in the glucose AUCs resulting from the different treatments was determined by one-way ANOVA followed by Dunnett's test using the vehicle group as the control (JMP software, release 5.1.2).

human GPR119 = biological target: T1, human GPR119 (Homo sapiens, UniProt Q8TDV5); assay: Human Tet-inducible cAMP assay; type: cell-based; conditions: Flp-In-T-REx 293 tetracycline inducible cells expressing GPR119; cAMP by Hit Hunter cAMP kit; 1 hour at 37° C.; read-out: hGPR119 EC50
T1 construct: expressed in transfected cells; host or cells: Flp-In-T-REx 293 (tetracycline-inducible)
T1 sequence (Q8TDV5 1-335): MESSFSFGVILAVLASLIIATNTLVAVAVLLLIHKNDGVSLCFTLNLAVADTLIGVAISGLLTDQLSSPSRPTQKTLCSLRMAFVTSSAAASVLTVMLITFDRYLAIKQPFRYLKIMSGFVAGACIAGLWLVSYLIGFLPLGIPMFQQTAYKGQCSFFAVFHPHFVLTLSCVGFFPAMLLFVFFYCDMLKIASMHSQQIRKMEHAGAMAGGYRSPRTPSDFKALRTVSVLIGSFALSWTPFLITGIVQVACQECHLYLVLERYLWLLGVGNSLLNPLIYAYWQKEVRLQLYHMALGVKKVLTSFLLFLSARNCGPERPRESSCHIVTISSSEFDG
Description: The in vitro modulation of recombinant human GPR119 was determined as follows.
Human Tet-Inducible cAMP Assay
Cell lines expressing GPR119 are generated using the Flp-In-T-REx 293 tetracycline inducible gene expression system are cultured in culture medium comprising the following components: DMEM#11965, 10% FBS, 2 mM L-glutamine, 200 ug/ml Hygromycin B, and 15 ug/ml blasticidin.
For cAMP assays, cells are plated on 96 well plates (e.g., BD Falcon: REF 353948, black side, clear bottom, TC surface) at a density of about 4.5×10^4 cells per well in growth medium containing 1.0 ug/ml tetracycline (1.0 mg/ml stock). The cells are then incubated for 48 hours at 37° C.
Following the incubation, the growth medium is removed from the wells and the wells rinsed (once) with the assay buffer included in the Hit Hunter cAMP kit (100 μl/well). Following the wash, 20 μl of assay buffer is added to each well, followed by addition of 10 μl of a 3× concentration compound working solution. The solution is then mixed. The final concentration range of compound is from about 10^−5M to about 10^−11M. The reagents are then incubated at 37° C. at 5% CO2 for 1 hour.
The manufacturer's protocol may be followed for cAMP determination. The Hit Hunter cAMP kit protocol is outlined for the HIT-T15 cAMP assays described above.
Compounds of the present invention were tested in the Human Tet-inducible cAMP assay described immediately above and the results shown in Table 1 below were obtained.

| SMILES | EC50 (human GPR119) [nM] | Glucose Lowering (%) (male C57BL/6J mice) |
| --- | --- | --- |
| CC(C)OC(=O)N1CCC(Oc2ccn(-c3ccc(S(C)(=O)=O)cc3)c(=O)c2)CC1 [Example 3, isopropyl 4-(1-(4-(methylsulfonyl)phenyl)-2-oxo-1,2-dihydropyridin-4-yloxy)piperidine-1-carboxylate] |  | −29 |
| CCCc1cnc(N2CCC(Oc3cc(=O)n(-c4ccc(C#N)c(F)c4)cc3Cl)CC2)nc1 [Example 227, 4-(5-chloro-2-oxo-4-(1-(5-propylpyrimidin-2-yl)piperidin-4-yloxy)pyridin-1(2H)-yl)-2-fluorobenzonitrile] | 1 |  |
| N#Cc1ccc(-n2cc(Cl)c(OC3CCN(c4ncc(C5CC5)cn4)CC3)cc2=O)cc1F [Example 229, 4-(5-chloro-4-(1-(5-cyclopropylpyrimidin-2-yl)piperidin-4-yloxy)-2-oxopyridin-1(2H)-yl)-2-fluorobenzonitrile] | 4 |  |
| N#Cc1ccc(-n2cc(Cl)c(OC3CCN(c4ncc(CCC(F)(F)F)cn4)CC3)cc2=O)cc1F [Example 263, 4-(5-chloro-2-oxo-4-(1-(5-(3,3,3-trifluoropropyl)pyrimidin-2-yl)piperidin-4-yloxy)pyridin-1(2H)-yl)-2-fluorobenzonitrile] | 4 |  |
| CC(C)(C)OC(=O)N1CCC(Oc2cc(=O)n(-c3ccc(C#N)c(F)c3)cc2Cl)CC1 [Example 267, tert-butyl 4-(5-chloro-1-(4-cyano-3-fluorophenyl)-2-oxo-1,2-dihydropyridin-4-yloxy)piperidine-1-carboxylate] | 4 |  |

Continued, in another order:

| EC50 (human GPR119) [nM] | SMILES | Glucose Lowering (%) (male C57BL/6J mice) |
| --- | --- | --- |
| 6 | CCCc1cnc(N2CCC(Oc3cc(=O)n(-c4ccc(S(C)(=O)=O)c(F)c4)cc3Cl)CC2)nc1 [Example 224, 5-chloro-1-(3-fluoro-4-(methylsulfonyl)phenyl)-4-(1-(5-propylpyrimidin-2-yl)piperidin-4-yloxy)pyridin-2(1H)-one, TFA salt] |  |
| 9 | CCCc1cnc(N2CCC(Oc3ccn(-c4ccc(NC(=O)C(C)(C)C)c(F)c4)c(=O)c3)CC2)nc1 [Example 239, N-(2-fluoro-4-(2-oxo-4-(1-(5-propylpyrimidin-2-yl)piperidin-4-yloxy)pyridin-1(2H)-yl)phenyl)pivalamide] |  |
| 9 | CS(=O)(=O)c1ccc(-n2ccc(OC3CCN(c4ncc(C5CCC5)cn4)CC3)cc2=O)c(F)c1 [Example 243, 4-(1-(5-cyclobutylpyrimidin-2-yl)piperidin-4-yloxy)-1-(2-fluoro-4-(methylsulfonyl)phenyl)pyridin-2(1H)-one] |  |
| 257 | CCCc1cnc(N2CCCC(Oc3ccn(-c4ccc(S(C)(=O)=O)cc4)c(=O)c3)CC2)nc1 (stereo not shown) [Example 261, 1-(4-(methylsulfonyl)phenyl)-4-(1-(5-propylpyrimidin-2-yl)azepan-4-yloxy)pyridin-2(1H)-one] |  |
| 4 | N#Cc1ccc(-n2cc(Cl)c(OC3CCN(c4ncc(C5CC5)cn4)CC3)cc2=O)c(F)c1 [Example 265, 4-(5-chloro-4-(1-(5-cyclopropylpyrimidin-2-yl)piperidin-4-yloxy)-2-oxopyridin-1(2H)-yl)-3-fluorobenzonitrile] |  |
